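48-hour exposure; five concentrations; linearly interpolated endpoints. TGI: total growth inhibition.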
How the values were obtained:
Assay in all cases: growth of human tumour cells (NCI), 48 h
SR leukemia = tested on: SR leukemia
SNB-19 CNS = tested on: SNB-19 CNS
NCI-H23 lung = tested on: NCI-H23 lung
MOLT-4 leukemia = tested on: MOLT-4 leukemia
NCI-H226 lung = tested on: NCI-H226 lung
HOP-92 NSCLC = tested on: HOP-92 NSCLC
MDA-MB-435 = tested on: MDA-MB-435
SK-MEL-5 melanoma = tested on: SK-MEL-5 melanoma
K-562 leukemia = tested on: K-562 leukemia
A498 renal = tested on: A498 renal
KM12 colon = tested on: KM12 colon
MALME-3M melanoma = tested on: MALME-3M melanoma
SF-295 CNS = tested on: SF-295 CNS
HT29 colon = tested on: HT29 colon
COLO 205 colon = tested on: COLO 205 colon
RXF 393 renal = tested on: RXF 393 renal
EKVX NSCLC = tested on: EKVX NSCLC
BT-549 breast = tested on: BT-549 breast
UO-31 renal = tested on: UO-31 renal
OVCAR-4 ovarian = tested on: OVCAR-4 ovarian
CAKI-1 renal = tested on: CAKI-1 renal
NCI-H522 lung = tested on: NCI-H522 lung
UACC-62 melanoma = tested on: UACC-62 melanoma
SN12C renal = tested on: SN12C renal
HL-60(TB) leukemia = tested on: HL-60(TB) leukemia
HCC-2998 colon = tested on: HCC-2998 colon
CCRF-CEM leukemia = tested on: CCRF-CEM leukemia
MCF7 breast = tested on: MCF7 breast
M14 melanoma = tested on: M14 melanoma
LOX IMVI melanoma = tested on: LOX IMVI melanoma
OVCAR-5 ovarian = tested on: OVCAR-5 ovarian
HS 578T breast = tested on: HS 578T breast
OVCAR-8 ovarian = tested on: OVCAR-8 ovarian
IGROV1 ovarian = tested on: IGROV1 ovarian
SK-OV-3 ovarian = tested on: SK-OV-3 ovarian
TK-10 renal = tested on: TK-10 renal
ACHN renal = tested on: ACHN renal
HCT-15 colon = tested on: HCT-15 colon
786-0 renal = tested on: 786-0 renal
DU-145 prostate = tested on: DU-145 prostate
U251 CNS = tested on: U251 CNS
A549 NSCLC = tested on: A549 NSCLC
RPMI-8226 leukemia = tested on: RPMI-8226 leukemia
UACC-257 melanoma = tested on: UACC-257 melanoma
NCI/ADR-RES ovarian = tested on: NCI/ADR-RES ovarian
NCI-H460 lung = tested on: NCI-H460 lung
HCT-116 colon = tested on: HCT-116 colon
OVCAR-3 ovarian = tested on: OVCAR-3 ovarian
SW-620 colon = tested on: SW-620 colon
SK-MEL-28 melanoma = tested on: SK-MEL-28 melanoma
PC-3 prostate = tested on: PC-3 prostate
HOP-62 NSCLC = tested on: HOP-62 NSCLC
MDA-MB-231 breast = tested on: MDA-MB-231 breast
SF-268 CNS = tested on: SF-268 CNS
SF-539 CNS = tested on: SF-539 CNS
T-47D breast = tested on: T-47D breast

In the case of `N#C[C@H]1C(=O)C(c2nc3ccccc3[nH]2)S[C@H]1c1ccccc1` (some centres undefined), the TGI (SR leukemia) is reported as > 100 µM, the TGI (SNB-19 CNS) is reported as > 100 µM and the TGI (NCI-H23 lung) is reported as 76.1 µM. For the same compound, the TGI (MOLT-4 leukemia) was > 100 µM, the TGI (NCI-H226 lung) was > 100 µM and the TGI (HOP-92 NSCLC) was 67.3 µM. The TGI (MDA-MB-435) was 87.8 µM, the TGI (SK-MEL-5 melanoma) was > 100 µM and the TGI (K-562 leukemia) was > 100 µM. The TGI (A498 renal) was 79 µM, the TGI (KM12 colon) was > 100 µM and the TGI (MALME-3M melanoma) was > 100 µM. For the same compound, the TGI (SF-295 CNS) was 86.2 µM, the TGI (HT29 colon) was > 100 µM and the TGI (COLO 205 colon) was > 100 µM. For the same compound, the TGI (RXF 393 renal) was 67.8 µM, the TGI (EKVX NSCLC) was > 100 µM and the TGI (BT-549 breast) was 92.4 µM. For the same compound, the TGI (UO-31 renal) was 78.8 µM, the TGI (OVCAR-4 ovarian) was > 100 µM and the TGI (CAKI-1 renal) was > 100 µM. For the same compound, the TGI (NCI-H522 lung) was 52.6 µM, the TGI (UACC-62 melanoma) was 36.7 µM and the TGI (SN12C renal) was 91.3 µM. The TGI (HL-60(TB) leukemia) was > 100 µM, the TGI (HCC-2998 colon) was > 100 µM and the TGI (CCRF-CEM leukemia) was > 100 µM. The TGI (MCF7 breast) was > 100 µM, the TGI (M14 melanoma) was > 100 µM and the TGI (LOX IMVI melanoma) was > 100 µM. The TGI (OVCAR-5 ovarian) was > 100 µM, the TGI (HS 578T breast) was > 100 µM and the TGI (OVCAR-8 ovarian) was > 100 µM. The TGI (IGROV1 ovarian) was > 100 µM, the TGI (SK-OV-3 ovarian) was > 100 µM and the TGI (TK-10 renal) was > 100 µM. The TGI (ACHN renal) was 57.6 µM, the TGI (HCT-15 colon) was > 100 µM and the TGI (786-0 renal) was 54.2 µM. For the same compound, the TGI (DU-145 prostate) was > 100 µM, the TGI (U251 CNS) was 57.2 µM and the TGI (A549 NSCLC) was > 100 µM. The TGI (RPMI-8226 leukemia) was 89.7 µM, the TGI (UACC-257 melanoma) was > 100 µM and the TGI (NCI/ADR-RES ovarian) was > 100 µM. For the same compound, the TGI (NCI-H460 lung) was > 100 µM, the TGI (HCT-116 colon) was > 100 µM and the TGI (OVCAR-3 ovarian) was > 100 µM. The TGI (SW-620 colon) was > 100 µM and the TGI (SK-MEL-28 melanoma) was > 100 µM.

`O=C1/C(=C/C=C/c2ccccc2)CCC1CNc1ccc(Br)cc1` (centres undefined) was tested, and the TGI (SR leukemia) was > 100 µM, the TGI (SNB-19 CNS) was > 100 µM and the TGI (PC-3 prostate) was > 100 µM. The TGI (NCI-H23 lung) was > 100 µM, the TGI (MOLT-4 leukemia) was > 100 µM and the TGI (NCI-H226 lung) was > 100 µM. For the same compound, the TGI (HOP-92 NSCLC) was > 100 µM, the TGI (MDA-MB-435) was > 100 µM and the TGI (SK-MEL-5 melanoma) was > 100 µM. For the same compound, the TGI (K-562 leukemia) was > 100 µM, the TGI (HOP-62 NSCLC) was > 100 µM and the TGI (A498 renal) was > 100 µM. For the same compound, the TGI (KM12 colon) was > 100 µM, the TGI (MALME-3M melanoma) was 0.246 µM and the TGI (SF-295 CNS) was > 100 µM. The TGI (HT29 colon) was > 100 µM, the TGI (MDA-MB-231 breast) was > 100 µM and the TGI (COLO 205 colon) was 48.6 µM. For the same compound, the TGI (RXF 393 renal) was > 100 µM, the TGI (EKVX NSCLC) was > 100 µM and the TGI (BT-549 breast) was > 100 µM. The TGI (UO-31 renal) was > 100 µM, the TGI (OVCAR-4 ovarian) was > 100 µM and the TGI (CAKI-1 renal) was > 100 µM. For the same compound, the TGI (NCI-H522 lung) was 57 µM, the TGI (SF-268 CNS) was > 100 µM and the TGI (UACC-62 melanoma) was > 100 µM. The TGI (SN12C renal) was > 100 µM, the TGI (SF-539 CNS) was > 100 µM and the TGI (HL-60(TB) leukemia) was > 100 µM. The TGI (HCC-2998 colon) was > 100 µM, the TGI (CCRF-CEM leukemia) was > 100 µM and the TGI (MCF7 breast) was > 100 µM. The TGI (M14 melanoma) was > 100 µM, the TGI (LOX IMVI melanoma) was > 100 µM and the TGI (OVCAR-5 ovarian) was > 100 µM. For the same compound, the TGI (HS 578T breast) was > 100 µM, the TGI (OVCAR-8 ovarian) was > 100 µM and the TGI (IGROV1 ovarian) was > 100 µM. For the same compound, the TGI (SK-OV-3 ovarian) was > 100 µM, the TGI (TK-10 renal) was > 100 µM and the TGI (T-47D breast) was > 100 µM. The TGI (ACHN renal) was > 100 µM, the TGI (HCT-15 colon) was > 100 µM and the TGI (786-0 renal) was > 100 µM. For the same compound, the TGI (DU-145 prostate) was > 100 µM, the TGI (U251 CNS) was > 100 µM and the TGI (A549 NSCLC) was > 100 µM. The TGI (UACC-257 melanoma) was > 100 µM, the TGI (NCI-H460 lung) was > 100 µM and the TGI (HCT-116 colon) was > 100 µM. The TGI (OVCAR-3 ovarian) was > 100 µM, the TGI (SW-620 colon) was > 100 µM and the TGI (SK-MEL-28 melanoma) was > 100 µM.

— PubChem BioAssay (NCI)
